Type in all cases: in vivo, mouse
In data set [1] the test system is MAPK44/42 and Akt pathway. The data set is described as follows: Western blot of Akt and MAPK44/42 activation in hippocampus. As for the experimental part: (§1) For the duration of the treatment, the mice were weighed weekly in order to assess any weight changes. After 21 days of treatment, the animals underwent a behavioral test to assess their memory and learning abilities. After the behavioral test, metabolic parameters such as blood glucose (both fasting and under the glycemic curve), body surface area (BSA) and body mass index (BMI) were assessed. Finally, animals were sacrificed using cervical dislocation. The brain and peripheral areas were isolated and collected in liquid nitrogen and subsequently stored at −80° C. until they were used for biochemical analyzes.
(§2) Total protein extracts were prepared from the frontal cortex for human autopsy samples and from the hippocampus for mouse samples, using RIPA solution (pH 7.4) containing TrisHCl (50 mM, pH 7.4), NaCl (150 mM), 1% NP-40, 0.25% sodium deoxycholate, ethylenediamine tetracetic acid (EDTA) (1 mM), and 0.1% sodium dodecyl sulfate (SDS). […] For the rest of the experiments, protein extracts were supplemented with cocktails of protease and phosphatase inhibitors (Sigma Aldrich, St Louis, MO, USA). Brain tissues were homogenized in the solution described above by sonication, and centrifuged at 14,000 rpm for 30 min at 4° C. The supernatant was used to determine total protein concentration by means of the bicinchoninic acid assay (BCA, Pierce, Rockford, IL). […]
In general terms: Immunoblotting shows a protein as a band on a membrane.

The test system of the next data set is β-amyloid peptide 1-42. Kind of data set: ELISA Aβ 1-42 in hippocampus. On the procedure: The 3x-Tg mouse, an animal model commonly used for the study of Alzheimer's disease (n=2/group), was used as a positive control for the production of β-amyloid 1-42. Briefly, ˜10 mg of hippocampus was homogenized in DEA buffer (10 μL/mg tissue; 0.2% diethanolamine and 50 mM NaCl) to which the protease inhibitor cocktail (1:100; Millipore) was added. The sample was centrifuged at 15,000 rpm for 1 hour 30 min at 4° C., the supernatant was stored for measuring ß-amyloid 1-42 following the instructions given by the kit manufacturer. The calculations for the quantization of β-amyloid were carried out using GraphPad Prism 8.0 software (GraphPad, La Jolla, CA, USA).
(In general: ELISA stands for enzyme-linked immunosorbent assay.)

A further data set deals with GSK3b protein. Kind of data set: Western blot of GSK3b activation (pS9/pT216) in hippocampus. The settings on record: brains (hippocampus) of Ts2Cje mice. As for the experimental part:
as §1, §2

Data set [2] has as its system spontaneous neurotransmitter release in Eu mice. Kind of data set: Patch-clamp electrophysiology, CA1 neurons of hippocampal sections, euploid mice. The note with it: after 21 days intranasal treatment. From the text:
The brain sections containing the hippocampus were obtained from mice belonging to the four experimental groups (Eu Veh, Eu SITA, Ts2 Veh and Ts2 SITA) at 9 months of age after being euthanized by an overdose of isofluorane. Brains were quickly removed and placed in an ice-cold cutting solution containing the following (in mM): 124 NaCl, 3.2 KCl, 1 NaH2PO4, 2 MgCl2, 1 CaCl2), 26 NaHCO3, 10 glucose, 2 Na-pyruvate and 0.6 ascorbic acid, pH 7.4, 95% O2/5% CO2. The brain sections containing the hippocampus ([…]) were cut using a vibratome (VT1000S; Leica Microsystems) and immediately transferred to an incubation chamber filled with ACSF containing the following (in mM): 124 NaCl, 3.2 KCl, 1 NaH2PO4, 1 MgCl2, 2 CaCl2, 26 NaHCO3 and 10 glucose, pH 7.4, 95% O2/5% CO2. Brain sections were allowed to recover at 32° C. for 1 hour before being equilibrated to room temperature. For electrophysiological recordings, brain sections were transferred to a recording chamber constantly perfused with heated ACSF (32° C.) and bubbled with 95% O2/5% CO2. Subsequently, the slices were used for electrophysiological recordings. All electrophysiological recordings were performed using the patch-clamp technique in the whole-cell configuration. […] Membrane capacity and resistance were assessed in the same neurons. […]
For orientation: Patch clamp records ionic current or voltage across a cell membrane.

Data set [3] in a line: Body weight, body surface area and body mass index during treatment. The note with it: Ts2Cje mice; sitagliptin 5 mM intranasal, 21 days. As for the experimental part: Finally, animals were sacrificed using cervical dislocation.
Furthermore, mice were measured at the beginning and at the end of the treatment to evaluate the length in centimeters (cm). For calculating the body mass surface, the DuBois equation was used: body surface area (m^2)=0.007184×weight ([…])×height ([…]). The body mass index was calculated as the ratio between weight and BSA (gr/m^2). At the end of the treatment, the glucose tolerance test (GTT) was carried out on the four experimental groups. After a fasting period of 6 hours, the animals' basal blood glucose was assessed with a small blood sample from the tail (T0). Subsequently, the same animals were treated with a glucose solution (10%, intraperitoneal injection) and blood glucose was measured with a glucometer (lineD ORO, Bioseven) after 30-60-90-120 minutes.

Each structure is given as a SMILES string.

Turning to `N[C@@H](CC(=O)N1CCn2c(nnc2C(F)(F)F)C1)Cc1cc(F)c(F)cc1F` [sitagliptin, (R)-4-oxo-4-[3-(trifluoromethyl)-5,6-dihydro[1,2,4]triazole[4,3-a]pyrazin-7(8H)-yl]-1-(2,4,5-trifluorophenyl)butan-2-amine], the “activation of the cerebral insulin signal, MAPK44/42” value in data set [1] (Western blot p(Thr202/Tyr204)-MAPK44/42) is “restoration of the activation”. The “activation of the cerebral insulin signal, Akt” value in data set [1] (Western blot p(ser473)-Akt) is reported as “restoration of the activation”. The “Ab (beta-amyloid 1-42) levels” value in the data set on β-amyloid peptide 1-42 is given as “reduction”. For the same compound, the “activation of the GSK3b protein” value in the data set with GSK3b protein is reported as “increased activation”. Besides, in data set [2], the “frequency and extent of spontaneous release of neurotransmitters” value is “no effect”. Further, the “phenotypic or morphometric changes (weight, BSA, BMI)” value in data set [3] was “no phenotypic or morphometric changes”.

The record behind these values is patent US12636284B2, “Compositions for use in the prevention and/or treatment of intellectual disability and neurodegenerative diseases in a subject with down syndrome” (UNIVERSITA' DEGLI STUDI DI ROMA “LA SAPIENZA”, priority 2021, dated 2026).
